Laboratory results: ChEMBL document CHEMBL1140397, “Discovery of 4-aryl-4H-chromenes as a new series of apoptosis inducers using a cell- and caspase-based high-throughput screening assay. 2. Structure-activity relationships of the 7- and 5-, 6-, 8-positions” (Bioorg Med Chem Lett, 2005)

How the values were obtained:
Format in all cases: functional
NCI-H1299 [1] = test: Effective concentration against human non-small cell lung cancer H1299 cells inducing apoptosis, activity was measured by cell and caspase-based HTS assay
T47D [2] = test: Effective concentration against human breast cancer T47D cell line apoptosis inducing activity was measured by using cell and caspase-based HTS assay
NCI-H1299 [3] = test: Growth inhibitory activity against human non-small cell lung cancer H1299 cells
T47D [4] = test: Growth inhibitory activity against human breast cancer T47D cell line
T47D [5] = test: Ratio of inhibition of cell proliferation activity to that of caspase activation inducing apoptosis activity in human breast cancer T47D cell line
NCI-H1299 [6] = test: Effective concentration against human non-small cell lung cancer H1299 cells inducing apoptosis activity was measured by using cell and caspase-based HTS assay
T47D [7] = test: Effective concentration against human breast cancer T47D cell line inducing apoptosis activity was measured by cell and caspase-based HTS assay
Tubulin beta-4B chain = Tubulin beta-4B chain (Homo sapiens, UniProt P68371); test: Inhibitory activity against tubulin using tubulin polymerization assay
Tubulin beta-4B chain, sequence (P68371 whole entry): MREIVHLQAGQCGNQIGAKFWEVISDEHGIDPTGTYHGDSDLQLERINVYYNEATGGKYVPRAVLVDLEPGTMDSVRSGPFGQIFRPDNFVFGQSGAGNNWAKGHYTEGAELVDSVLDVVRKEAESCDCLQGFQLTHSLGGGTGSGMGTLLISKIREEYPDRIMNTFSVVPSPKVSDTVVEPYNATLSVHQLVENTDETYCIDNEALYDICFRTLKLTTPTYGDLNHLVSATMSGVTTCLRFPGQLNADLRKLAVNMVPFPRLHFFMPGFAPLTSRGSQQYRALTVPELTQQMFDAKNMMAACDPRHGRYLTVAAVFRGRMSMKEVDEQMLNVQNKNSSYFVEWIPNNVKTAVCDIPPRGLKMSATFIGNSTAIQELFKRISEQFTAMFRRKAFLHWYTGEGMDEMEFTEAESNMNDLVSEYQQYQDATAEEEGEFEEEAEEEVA

Compound	EC50 (NCI-H1299 [1])	EC50 (T47D [2])	EC50 (NCI-H1299 [6])	further results
CCCCNc1ccc2c(c1)OC(N)=C(C#N)C2c1cccc(OC)c1 (stereo not given)	190 nM	110 nM		
COc1cncc(C2C(C#N)=C(N)Oc3cc(OC)ccc32)c1 (stereo not given)	100 nM	47 nM		GI50 (NCI-H1299 [3]; Homo sapiens, NCI-H1299): 72 nM; GI50 (T47D [4]): 65 nM; GI50/EC50 (T47D [5]): 1.4
N#CC1=C(N)Oc2c(ccc(N)c2N)C1c1cccc([N+](=O)[O-])c1 (stereo not given)	420 nM	390 nM		
CCNc1cc2c(cc1C)C(c1cc(OC)c3c(c1)OCO3)C(C#N)=C(N)O2 (stereo not given)			1400 nM	EC50 (T47D [7]): 1100 nM
CCNc1ccc2c(c1)OC(N)=C(C#N)C2c1cc(OC)c2c(c1)OCO2 (stereo not given)			400 nM	EC50 (T47D [7]): 330 nM
CCN(CC)c1ccc2c(c1)OC(N)=C(C#N)C2c1cc(OC)c2c(c1)OCO2 (stereo not given)			530 nM	EC50 (T47D [7]): 480 nM
COc1cc(C2C(C#N)=C(N)Oc3c2ccc(N)c3N)cc(Br)c1OC (stereo not given)	81 nM	34 nM		GI50 (NCI-H1299 [3]; Homo sapiens, NCI-H1299): 31 nM; GI50 (T47D [4]): 150 nM; GI50/EC50 (T47D [5]): 4.4
COc1cc(C2C(C#N)=C(N)Oc3cc(Br)ccc32)cc(Br)c1OC (stereo not given)	280 nM	140 nM		
COc1cc(C2C(C#N)=C(N)Oc3cc(O)ccc32)cc(Br)c1OC (stereo not given)	210 nM	130 nM		GI50 (NCI-H1299 [3]; Homo sapiens, NCI-H1299): 190 nM; GI50 (T47D [4]): 800 nM; GI50/EC50 (T47D [5]): 6.1
N#CC1=C(N)Oc2c(ccc(N)c2N)C1c1cccc(Br)c1 (stereo not given)	230 nM	150 nM		
CCCCNc1ccc2c(c1)OC(N)=C(C#N)C2c1cccc(Cl)c1 (stereo not given)	190 nM	120 nM		
COc1ccc2c(c1)OC(N)=C(C#N)C2c1cccc([N+](=O)[O-])c1 (stereo not given)	170 nM	89 nM		
COc1cc(C2C(C#N)=C(N)Oc3c2ccc(C)c3C)cc(Br)c1OC (stereo not given)	87 nM	42 nM		
COc1cc(C2C(C#N)=C(N)Oc3c2ccc(N)c3C)cc2c1OCO2 (stereo not given)		310 nM	770 nM	GI50 (NCI-H1299 [3]): 860 nM; GI50 (NCI-H1299 [3]; Homo sapiens, NCI-H1299): 490 nM
COc1ccc2c(c1)OC(N)=C(C#N)C2c1cccc(Cl)c1 (stereo not given)	160 nM	80 nM		
COc1ccc2c(c1)OC(N)=C(C#N)C2c1cccnc1 (stereo not given)	290 nM	170 nM		

Compound	EC50 (NCI-H1299 [1])	EC50 (T47D [2])	EC50 (NCI-H1299 [6])	further results
COc1cc(C2C(C#N)=C(N)Oc3c2ccc(O)c3O)cc(Br)c1OC (stereo not given)	2500 nM	1700 nM		
COc1cc(OC)c2c(c1)OC(N)=C(C#N)C2c1cc(OC)c2c(c1)OCO2 (stereo not given)			> 10000 nM	GI50 (NCI-H1299 [3]; Homo sapiens, NCI-H1299): > 10000 nM; GI50 (T47D [4]): > 10000 nM; GI50/EC50 (T47D [5]): 1; EC50 (T47D [7]): > 10000 nM
N#CC1=C(N)Oc2c(ccc(N)c2N)C1c1cccc(C#N)c1 (stereo not given)	460 nM	390 nM		
COc1ccc2c(c1)OC(N)=C(C#N)C2c1cc(OC)c2c(c1)OCO2 (stereo not given)			230 nM	GI50 (NCI-H1299 [3]; Homo sapiens, NCI-H1299): 240 nM; GI50 (T47D [4]): 260 nM; GI50/EC50 (T47D [5]): 1.6; EC50 (T47D [7]): 160 nM
COc1cc2c(cc1OC)C(c1cc(OC)c3c(c1)OCO3)C(C#N)=C(N)O2 (stereo not given)			> 10000 nM	GI50 (NCI-H1299 [3]; Homo sapiens, NCI-H1299): > 10000 nM; GI50 (T47D [4]): > 10000 nM; GI50/EC50 (T47D [5]): 1; EC50 (T47D [7]): > 10000 nM
COc1cc(C2C(C#N)=C(N)Oc3c2ccc(N)c3C)cc(Br)c1OC (stereo not given)	53 nM	26 nM		
COc1cc(C2C(C#N)=C(N)Oc3cc(N(C)C)ccc32)cc2c1OCO2 (stereo not given)			93 nM	EC50 (T47D [7]): 730 nM
COc1cc(C2C(C#N)=C(N)Oc3c2ccc(N)c3N)cc(I)c1OC (stereo not given)	100 nM	49 nM		
CCCCNc1ccc2c(c1)OC(N)=C(C#N)C2c1cc(OC)cc(OC)c1 (stereo not given)	120 nM	55 nM		
COc1ccc2c(c1)OC(N)=C(C#N)C2c1cccc(Br)c1 (stereo not given)	95 nM	52 nM		
COc1cc(C2C(C#N)=C(N)Oc3cc(Cl)ccc32)cc(Br)c1OC (stereo not given)		160 nM	290 nM	GI50 (NCI-H1299 [3]; Homo sapiens, NCI-H1299): 55 nM; GI50 (T47D [4]): 64 nM
CCNc1ccc2c(c1)OC(N)=C(C#N)C2c1cc(Br)c(OC)c(OC)c1 (stereo not given)		14 nM	27 nM	
CCCCNc1ccc2c(c1)OC(N)=C(C#N)C2c1cc(OC)c(OC)c(OC)c1 (stereo not given)	110 nM	49 nM		
COc1cccc(C2C(C#N)=C(N)Oc3cc(OC)ccc32)c1 (stereo not given)	89 nM	52 nM		
COc1ccc2c(c1)OC(N)=C(C#N)C2c1ccccc1 (stereo not given)	520 nM	360 nM		

Now from value to molecule, other results behind:

EC50 (NCI-H1299 [1])	EC50 (T47D [2])	EC50 (NCI-H1299 [6])	Compound	further results
		1700 nM	COc1cc(C2C(C#N)=C(N)Oc3cc(N)ccc32)cc2c1OCO2 (stereo not given)	GI50 (NCI-H1299 [3]; Homo sapiens, NCI-H1299): 1200 nM; GI50 (T47D [4]): 2400 nM; GI50/EC50 (T47D [5]): 2.1; EC50 (T47D [7]): 1200 nM
62 nM	23 nM		COc1cc(C2C(C#N)=C(N)Oc3c2ccc(N)c3N)cc(Br)c1O (stereo not given)	
190 nM	92 nM		COc1cc(OC)cc(C2C(C#N)=C(N)Oc3c2ccc(N)c3N)c1 (stereo not given)	
170 nM	110 nM		CCCCNc1ccc2c(c1)OC(N)=C(C#N)C2c1cccc([N+](=O)[O-])c1 (stereo not given)	
57 nM	26 nM		COc1ccc2c(c1)OC(N)=C(C#N)C2c1cc(OC)c(OC)c(OC)c1 (stereo not given)	
32 nM	15 nM		COc1cc(OC)cc(C2C(C#N)=C(N)Oc3cc(OC)ccc32)c1 (stereo not given)	
		> 10000 nM	COc1cc(C2C(C#N)=C(N)Oc3cc(N4CCOCC4)ccc32)cc2c1OCO2 (stereo not given)	EC50 (T47D [7]): > 10000 nM
	17 nM	34 nM	COc1ccc2c(c1)OC(N)=C(C#N)C2c1cc(Br)c(OC)c(OC)c1 (stereo not given)	GI50 (NCI-H1299 [3]; Homo sapiens, NCI-H1299): 9 nM; GI50 (T47D [4]): 8 nM; GI50/EC50 (T47D [5]): 0.47
		> 10000 nM	COc1cc(C2C(C#N)=C(N)Oc3cc(Nc4ccccc4)ccc32)cc2c1OCO2 (stereo not given)	EC50 (T47D [7]): > 10000 nM
58 nM	24 nM		COc1cc(C2C(C#N)=C(N)Oc3c2ccc(N)c3N)cc(Cl)c1OC (stereo not given)	
180 nM	61 nM		COc1cc(C2C(C#N)=C(N)Oc3c2ccc(O)c3N)cc(Br)c1OC (stereo not given)	GI50 (NCI-H1299 [3]; Homo sapiens, NCI-H1299): 110 nM; GI50 (T47D [4]): 120 nM; GI50/EC50 (T47D [5]): 2
		5600 nM	COc1cc(C2C(C#N)=C(N)Oc3cc(O)ccc32)cc2c1OCO2 (stereo not given)	GI50 (NCI-H1299 [3]; Homo sapiens, NCI-H1299): 5500 nM; GI50 (T47D [4]): 6080 nM; GI50/EC50 (T47D [5]): 1; EC50 (T47D [7]): 5800 nM
	210 nM	270 nM	COc1cc(C2C(C#N)=C(N)Oc3cc4c(cc32)OCO4)cc2c1OCO2 (stereo not given)	
92 nM	64 nM		CCOc1ccc2c(c1)OC(N)=C(C#N)C2c1cc(Br)c(OC)c(OC)c1 (stereo not given)	
	33 nM	67 nM	COc1cc(C2C(C#N)=C(N)Oc3cc(N)ccc32)cc(Br)c1OC (stereo not given)	GI50 (NCI-H1299 [3]; Homo sapiens, NCI-H1299): 76 nM; IC50 (Tubulin beta-4B chain): < 500 nM; GI50 (T47D [4]): 77 nM; GI50/EC50 (T47D [5]): 2.3
